Measurements reported in patent US20260376293A1, “METHODS FOR STUDYING GPR158 PHARMACOLOGY AND IDENTIFICATION OF ITS LIGANDS” (UNIVERSITY OF FLORIDA RESEARCH FOUNDATION, INCORPORATED, priority 2022, published 2026).

Molecular target: T1, GPR158 Y269A mutant (Homo sapiens, UniProt Q5T848, Y269A)
T1 sequence (Q5T848 24-1215 Y269A): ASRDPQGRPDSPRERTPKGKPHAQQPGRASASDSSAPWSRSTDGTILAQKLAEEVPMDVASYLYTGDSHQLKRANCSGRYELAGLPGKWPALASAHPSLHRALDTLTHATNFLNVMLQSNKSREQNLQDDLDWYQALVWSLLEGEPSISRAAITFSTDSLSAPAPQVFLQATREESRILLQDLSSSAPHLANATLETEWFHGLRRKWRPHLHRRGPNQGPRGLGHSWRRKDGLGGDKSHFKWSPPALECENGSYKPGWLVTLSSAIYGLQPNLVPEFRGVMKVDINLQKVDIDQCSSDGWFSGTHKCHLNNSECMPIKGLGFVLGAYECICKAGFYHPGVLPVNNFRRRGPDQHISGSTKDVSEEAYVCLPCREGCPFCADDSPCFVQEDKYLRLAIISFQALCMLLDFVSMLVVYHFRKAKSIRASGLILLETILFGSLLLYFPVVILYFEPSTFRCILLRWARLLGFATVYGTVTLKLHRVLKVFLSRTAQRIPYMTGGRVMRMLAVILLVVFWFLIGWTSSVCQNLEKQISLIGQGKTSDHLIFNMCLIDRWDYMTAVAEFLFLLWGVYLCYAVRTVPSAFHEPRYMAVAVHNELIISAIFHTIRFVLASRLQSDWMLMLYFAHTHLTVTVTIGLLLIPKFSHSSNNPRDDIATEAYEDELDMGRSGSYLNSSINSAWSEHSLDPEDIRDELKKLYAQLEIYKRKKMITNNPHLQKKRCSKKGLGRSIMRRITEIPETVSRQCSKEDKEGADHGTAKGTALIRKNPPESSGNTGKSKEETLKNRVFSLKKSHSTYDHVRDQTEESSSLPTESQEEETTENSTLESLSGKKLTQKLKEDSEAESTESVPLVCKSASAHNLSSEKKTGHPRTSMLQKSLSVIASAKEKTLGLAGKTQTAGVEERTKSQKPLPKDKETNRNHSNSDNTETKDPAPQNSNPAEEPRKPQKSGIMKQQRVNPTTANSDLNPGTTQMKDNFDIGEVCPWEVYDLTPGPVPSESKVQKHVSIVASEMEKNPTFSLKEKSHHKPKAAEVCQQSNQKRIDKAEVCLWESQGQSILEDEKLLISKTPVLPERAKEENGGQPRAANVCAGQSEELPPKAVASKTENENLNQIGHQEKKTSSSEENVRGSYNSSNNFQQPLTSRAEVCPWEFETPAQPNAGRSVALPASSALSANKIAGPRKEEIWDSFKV
Assay: Radioligand binding assay on GPR158 mutant Y269A
Source text: FIGS. 11A-11G. Probing Cache domain of GPR158 as a ligand binding site A) Computational docking of glycine into putative ligand binding pocket on GPR158 Cache domain. Glycine and directly interacting residues are shown as sticks. Hydrogen bonds and van der Waals interactions are shown as dotted lines. B) Diagram showing interactions in the docked model of glycine against GPR158 Cache domain. Hydrogen bonds are shown as dashed lines, van der Waals interactions are shown as intersecting semicircles, and the secondary structural context of Ser266 and Tyr269 is shown as an arc. Dagger indicates a residue implicated in glycine binding in 11A. C) Radioligand binding assay of ^3H-glycine in cells expressing GPR158 mutants. Data shown mean±s.e.m. of 3 independent experiments, *p<0.05, ns=p>0.05 one-way ANOVA. D) Functional evaluation of GPR158 mutants in GAP BRET assay. Error bars are mean±s.e.m. of 3 independent experiments in triplicate. *p<0.05, **p<0.01, ***p<0.001, ****p<0.0001, ns=p>0.05, two-way ANOVA Columns with no fill (Ctrl), columns with angled-line fill (Glycine) E) Quantification of glycine inhibitory effect on kGAP normalized to the effect seen with WT receptor. […]
Whole cell binding was performed using cDNA of GPR158-venus or each GPR158-venus mutant or empty pcDNA3.1+ for ctrl cells. […] Finally radioactivity was measured using the liquid scintillation analyzer Tri-Carb 4910 TR.

[^3H]-glycine binding: near complete loss
Compound: NCC(=O)O [^3H-glycine, [^3H]-glycine]
